According to patent publication US20150004134A1, “TREATMENT OF CANCER WITH HETEROCYCLIC INHIBITORS OF GLUTAMINASE” (Calithera Biosciences, Inc., priority 2012, published 2015):
pIC50: −log10 of the molar value. Where two headings read alike, the source gives them in different places.

Tests used:
[1] = biological target: T1, recombinant form of Glutaminase 1 (GAC) (Homo sapiens, UniProt O94925); test: Recombinant Enzyme Assay - Time Dependence (60 min preincubation); type: biochemical
T1 sequence (O94925 137-598 isoform O94925-3 limits assumed): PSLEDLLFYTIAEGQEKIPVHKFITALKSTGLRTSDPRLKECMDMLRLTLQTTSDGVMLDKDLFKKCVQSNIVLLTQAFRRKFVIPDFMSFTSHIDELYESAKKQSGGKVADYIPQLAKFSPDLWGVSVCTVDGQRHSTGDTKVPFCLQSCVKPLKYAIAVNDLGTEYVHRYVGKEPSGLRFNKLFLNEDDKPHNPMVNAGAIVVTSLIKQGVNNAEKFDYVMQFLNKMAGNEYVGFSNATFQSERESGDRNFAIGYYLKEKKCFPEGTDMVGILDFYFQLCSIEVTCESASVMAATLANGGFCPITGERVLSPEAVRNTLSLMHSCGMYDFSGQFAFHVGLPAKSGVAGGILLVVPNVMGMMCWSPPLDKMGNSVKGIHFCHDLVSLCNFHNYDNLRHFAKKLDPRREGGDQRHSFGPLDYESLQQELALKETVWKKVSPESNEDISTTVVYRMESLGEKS
Experimental: The enzyme/compound mix was sealed with sealing foil (USA Scientific) and allowed to incubate, with mild agitation, for 60 minutes at 20° C. Enzymatic reaction was started with the addition of 50 μL of substrate solution (50 mM Tris-HCl pH 8.0, 0.2 mM EDTA, 150 mM K2HPO4, 0.1 mg/ml BSA, 1 mM DTT, 20 mM L-glutamine, 2 mM NAD^+, and 10 ppm antifoam) and read in a Molecular Devices M5 plate reader at 20° C. The plate reader was configured to read absorbance (=340 nm) in kinetic mode for 15 minutes. Data was recorded as milli-absorbance units per minute and slopes were compared to a control compound and a DMSO-only control on the same plate. Compounds with slopes less than the DMSO control were considered inhibitors and plate variability was assessed using the control compound.

P493-6 (myc "on") cells = test: Cell Proliferation Assay; type: cell-based
Summary of the method: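 P493-6 cells with myc on, 10,000 per well in RPMI/10% FBS, exposed to serially diluted compound (0.5% DMSO final) for 72 h at 37 °C, 5% CO2. Antiproliferative effect read by Cell Titer Glo luminescence or Viacount FACS viability count.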

[2] = read-out: GAC Delta N2 IC50 60 min preinc
[3] = P493-6, 72 h, read-out: Cell prolif P493 72 h IC50, P493-6 cells, 72 h
[4] = P493-6, 72 h, read-out: Cell prolif P493 72 h IC50, P493 cells, 72 h

Structure (SMILES)	pIC50 [1, 2]	pIC50 (P493-6 (myc "on") cells; [3])	pIC50 (P493-6 (myc "on") cells; [4])	other results
CC(C)(C)OC(=O)NC(C)(C)c1cccc(CC(=O)Nc2nnc(CCCCc3ccc(NC(=O)Cc4ccccc4)nn3)s2)c1 [Compound 630]	8.40	8.05		
CC(C)CC(=O)NCc1cccc(CC(=O)Nc2nnc(CCCCc3ccc(NC(=O)Cc4ccccc4)nn3)s2)c1 [Compound 433]	8.70	8.15		
CC(C)(C)OC(=O)NCc1cccc(CC(=O)Nc2nnc(CCCCc3ccc(NC(=O)C(C)(C)C)nn3)s2)c1 [Compound 510]	7.66	7.03		
CC(C)C(=O)NC(C)c1cccc(CC(=O)Nc2ccc(CCCCc3nnc(NC(=O)Cc4ccccc4)s3)nn2)c1 (stereo not drawn) [Compound 620]	8.30	7.96		
CCCCS(=O)(=O)Cc1cccc(CC(=O)Nc2nnc(CCCCc3ccc(NC(=O)Cc4ccccc4)nn3)s2)c1 [Compound 644]		7.89		pIC50 [1]: 8.52
CNCc1cccc(CC(=O)Nc2nnc(CCCCc3ccc(NC(=O)Cc4ccccc4)nn3)s2)c1 [Compound 408]	7.74	6.72		
CC(NC(=O)C(F)(F)F)c1cccc(CC(=O)Nc2ccc(CCCCc3nnc(NC(=O)Cc4ccccc4)s3)nn2)c1 (stereo not drawn) [Compound 622]	8.40	8.00		
O=C(Cc1cccc(OC(F)(F)F)c1)Nc1ccc(CCCCc2nnc(NC(=O)Cc3cccc(OC(F)F)c3)s2)nn1 [Compound 668]	8.05			
O=C(Cc1cccc(OC(F)(F)F)c1)Nc1ccc(CCCCc2nnc(NC(=O)Cc3cccc(OCC(F)(F)F)c3)s2)nn1 [Compound 669]	7.68			
O=C(Cc1ccc(OC(F)(F)F)cc1)Nc1ccc(CCCCc2nnc(NC(=O)Cc3ccccc3)s2)nn1 [Compound 615]	8.05			
O=C(Cc1cccc(OC(F)(F)F)c1)Nc1ccc(CCCCc2nnc(NC(=O)Cc3cc(F)ccc3F)s2)nn1 [Compound 659]	8.00			
O=C(Cc1cccc(OC(F)(F)F)c1)Nc1ccc(CCCCc2nnc(NC(=O)Cc3ccncc3)s2)nn1 [Compound 672]	8.00			
CC(C(=O)Nc1nnc(CCCCc2ccc(NC(=O)Cc3cccc(OC(F)(F)F)c3)nn2)s1)c1ccccc1 (stereo not drawn) [Compound 636]	8.10			
O=C(Cc1cccc(OC(F)(F)F)c1)Nc1ccc(CCCCc2nnc(NC(=O)Cc3ccccc3F)s2)nn1 [Compound 673]	8.22			
CSc1cccc(CC(=O)Nc2nnc(CCCCc3ccc(NC(=O)Cc4cccc(OC(F)(F)F)c4)nn3)s2)c1 [Compound 674]	8.10			
O=C(Cc1ccccc1OC(F)(F)F)Nc1ccc(CCCCc2nnc(NC(=O)Cc3ccccc3)s2)nn1 [Compound 614]	8.10			
O=C(Cc1cccc(Br)c1)Nc1nnc(CCCCc2nnc(NC(=O)Cc3cccc(Br)c3)s2)s1 [Compound 284]				pIC50 [1]: 7.30
CC(C)(C)OC(=O)NCc1cccc(CC(=O)Nc2nnc(CCCCc3ccc(NC(=O)Cc4cccc(OC(F)(F)F)c4)nn3)s2)c1 [Compound 586]	7.89			
O=C(Cc1ccccc1)Nc1nnc(CCSCCc2nnc(NC(=O)Cc3ccccc3)s2)s1 [Compound 1, N,N′-(5,5′-(thiobis(ethane-2,1-diyl))bis(1,3,4-thiadiazole-5,2-diyl))bis(2-phenylacetamide)]			6.33	
O=C(Cc1cccc(OC(F)(F)F)c1)Nc1ccc(CCCCc2nnc(NC(=O)Cc3cc(F)cc(F)c3)s2)nn1 [Compound 662]	8.15			
CC(C(=O)Nc1ccc(CCCCc2nnc(NC(=O)Cc3ccccc3)s2)nn1)c1ccc(F)c(CN(C)C(=O)OC(C)(C)C)c1 (stereo not drawn) [Compound 599]		7.41		
COc1cccc(CC(=O)Nc2nnc(CCCCc3ccc(NC(=O)Cc4cccc(OC(F)(F)F)c4)nn3)s2)c1 [Compound 658]	8.30			
O=C(Cc1ccccc1)Nc1ccc(CCCCc2nnc(NC(=O)C(O)c3ccc(-c4ccccc4)cc3OCCO)s2)nn1 (stereo not drawn) [Compound 504]		6.92		
CC(C)[C@H](NC(=O)OC(C)(C)C)C(=O)Nc1nnc(CCSCCc2nnc(NC(=O)[C@@H](NC(=O)OC(C)(C)C)C(C)C)s2)s1 [Compound 34]			< 4.30	
CC(CCc1nnc(NC(=O)Cc2ccccc2)s1)CCc1nnc(NC(=O)Cc2ccccc2)s1 [Compound 9]			< 4.30	

Structure (SMILES)	pIC50 [1, 2]	pIC50 (P493-6 (myc "on") cells; [3])	pIC50 (P493-6 (myc "on") cells; [4])	other results
O=C(Nc1nnc(CCCCc2nnc(NC(=O)C3CC4CCC3C4)s2)s1)C1CC2CCC1C2 (stereo not drawn) [Compound 55]			5.41	
O=C(Nc1nnc(CCCCc2nnc(NC(=O)C(F)(F)F)s2)s1)C(F)(F)F [Compound 45]			< 4.30	
COc1cc(CC(=O)Nc2nnc(CCCCc3ccc(NC(=O)Cc4ccccc4)nn3)s2)ccc1F [Compound 515]		7.23		
C[C@@H](O)C(=O)Nc1nnc(CCCCc2nnc(NC(=O)Cc3ccccc3)s2)s1 [Compound 322]			5.52	
COC(C(=O)Nc1nnc(CCCCc2ccc(NC(=O)Cc3cccc(CNC(=O)CC(O)C(F)(F)F)c3)nn2)s1)c1ccccc1 (stereo not drawn) [Compound 604]		7.38		
Nc1cccc(CC(=O)Nc2nnc(CCCCc3ccc(NC(=O)Cc4ccccc4)nn3)s2)c1 [Compound 409]		7.43		
O=C(Nc1nnc(CCCCc2nnc(NC(=O)[C@@H](O)[C@H](O)c3ccccc3)s2)s1)[C@@H](O)[C@H](O)c1ccccc1 [Compound 226]			< 4.30	
O=C(Cc1c(F)cccc1F)Nc1nnc(CCSCCc2nnc(NC(=O)Cc3c(F)cccc3F)s2)s1 [Compound 298]			5.29	
CCCC(=O)OC(C(=O)Nc1nnc(CCCCc2ccc(NC(=O)Cc3ccccc3)nn2)s1)c1cccc(Cl)c1 (stereo not drawn) [Compound 439]				pIC50 (P493-6 (myc "on") cells; read-out: Cell prolif P493 72 h IC50, P493-6 cells, 72 h): 7.25
O=C(CC(C(=O)O)c1ccccc1)Nc1nnc(CCCCc2nnc(NC(=O)CC(C(=O)O)c3ccccc3)s2)s1 (stereo not drawn) [Compound 177]			< 4.30	
COc1ccc(Cl)c(CC(=O)Nc2nnc(CCCCc3nnc(NC(=O)Cc4ccccc4)s3)s2)c1F [Compound 343]			6.60	
O=C(Nc1nnc(CCSCCc2nnc(NC(=O)c3ccccc3CO)s2)s1)c1ccccc1CO [Compound 180]			< 4.30	
O=C(Nc1nnc(CCCCc2nnc(NC(=O)C3(c4ccccc4)CC3)s2)s1)C1(c2ccccc2)CC1 [Compound 168]			< 4.30	
O=C(Cc1cccc(F)c1)Nc1nnc(CCSCCc2nnc(NC(=O)Cc3cccc(F)c3)s2)s1 [Compound 102]			5.85	
O=C(Cc1ccccc1)Nc1nnc(CCSCCc2nnc(NC(=O)Cc3cccnc3)s2)s1 [Compound 347]			6.15	
CC(=O)NCc1cccc(CC(=O)Nc2nnc(CCCCc3ccc(NC(C)=O)nn3)s2)c1 [Compound 459]		6.24		
COC(=O)Cc1cccc(OCC(=O)Nc2nnc(CCCCc3ccc(NC(=O)Cc4ccccc4)nn3)s2)c1 [Compound 628]		6.77		
O=C(Cc1ccccc1CO)Nc1nnc(CCSCCc2nnc(NC(=O)Cc3ccccc3CO)s2)s1 [Compound 181, N,N′-(5,5′-(thiobis(ethane-2,1-diyl))bis(1,3,4-thiadiazole-5,2-diyl))bis(2-(2-(hydroxymethyl)phenyl)acetamide)]			4.52	
O=C(Cc1ccccc1F)Nc1ccc(CCCCc2nnc(NC(=O)Cc3ccccc3Cl)s2)nn1 [Compound 566]		7.82		
CC(C)(C)OC(=O)NCc1cccc(CC(=O)Nc2nnc(CCCCc3ccc(NC(=O)C(O)(CO)c4ccccc4)nn3)s2)c1 (stereo not drawn) [Compound 507]		7.39		
CC(C)(CCc1nnc(NC(=O)Cc2ccccc2)s1)CCc1nnc(NC(=O)Cc2ccccc2)s1 [Compound 10]			< 4.30	
CCC(C)C(=O)Nc1nnc(CCSCCc2nnc(NC(=O)C(C)CC)s2)s1 (stereo not drawn) [Compound 105]			3.92	
CC(=O)OCC(C(=O)Nc1nnc(CCSCCc2nnc(NC(=O)C(COC(C)=O)c3ccccc3)s2)s1)c1ccccc1 (stereo not drawn) [Compound 14]			5.74	
COc1ccc(CC(=O)Nc2nnc(CCCCc3ccc(NC(=O)Cc4ccccc4)nn3)s2)cc1O [Compound 582]		7.34		
CCCC(=O)OCN(C(=O)Cc1cccc(CC(=O)N2CCC(F)(F)CC2)c1)c1nnc(CCCCc2ccc(NC(=O)Cc3ccccc3)nn2)s1 [Compound 570]		8.05		
